US9610262B2, “Therapeutic and/or preventive agent comprising 1-indansulfamide derivative for pain” (Eisai R&D Management Co., Ltd., priority 2013, dated 2017)

Tests used:
[1] = system: tactile allodynia in rat chronic constriction injury (CCI) model; assay: Rat chronic constriction injury (CCI) model, von Frey filament test; type: in vivo, Male SD rats; conditions: for 50% Response threshold: mean±SEM; for response threshold against mechanical stimulation: pre-administration, 10 and 50 mg/kg oral
Excerpt: The rat chronic constriction injury (CCI) model was used to determine the efficacy on the chronic pain. In this model, tactile allodynia, a typical symptom in chronic pain patients, can be evaluated by using a response threshold against mechanical stimulation by von Frey filaments as an index (Bennett G. J. and Xie, Y. K., (Pain 1988; 33: p 87-107).
Male SD rats (Charles River Japan) aged 6 weeks (n=4, each treatment performed twice in total) were used for this experiment. The rat chronic constriction injury (CCI) model was prepared in accordance with the method of Bennett and Xie above.
The common sciatic nerve was exposed at the level of the middle of the thigh by blunt dissection through biceps femoris under isoflurane anesthesia. Four ligatures (4-0 silk) were tied loosely around the sciatic nerve at about 1 mm spacing. The biceps femoris and the skin were sutured.
On 14 days after surgery, efficacy of the compounds on tactile allodynia was evaluated. The animals were housed in wire mesh bottom cages for 30 minutes prior to the start of the experiment for acclimation. The test compound was suspended in an aqueous solution containing 0.45% methyl cellulose/4.5% Cremophor/10% dimethyl sulfoxide to prepare a suspension having a dosing volume of 10 ml/kg and the suspension was administered orally. The above mixed solvent (vehicle) alone not containing the test compound was used as a negative control. The response threshold against mechanical stimulation was measured by the application of von Frey filaments at bending forces (0.4, 0.6, 1, 2, 4, 6, 8, and 15 g) to the plantar surface of the hind paw in accordance with Chaplan et al. (J Neuroscience Methods 1994; 53(1): p. 55-63). The von Frey filaments were pushed to the paw for 6 seconds to evaluate escape response. The 50% response threshold was determined in accordance with the up-down method of Dixon (Annual Review of Pharmacology and Toxicology 1980; 20: p. 441-462). The measurement was performed before administration and at 30, 90 and 180 minutes after administration. All data are expressed as the mean±SEM. All statistical analyses were performed using Two way Repeated Measures ANOVA followed by Dunnett's test. The p-values less than 0.05 were judged as statistically significant in this experiment.

[2] = system: acute pain (mice hot plate, 53° C.); assay: Mice hot-plate test; type: in vivo, Male C57BL/6NCrlCrlj mice; conditions: oral, 60 minutes before the hot-plate test; FIG. 1
Procedure: The mice hot-plate test was performed to determine the efficacy on acute pain. In this model, latency to the first pain response is recorded as a measure of pain sensitivity (Malmberg, A. and Yaksh, T., Pain. 1995, 60: 83-90).
Male C57BL/6NCrlCrlj mice (Charles River Japan) aged 6 weeks (n=4 to 10, for each treatment) were used for this experiment. The hot plate (model MK 350, Muromachi Kikai Co. Ltd) was set to 53° C. For oral administration, the test compound was suspended in an aqueous solution containing 0.45% methyl cellulose/4.5% Cremophor/10% dimethyl sulfoxide to prepare a suspension having a dosing volume of 10 ml/kg and the suspension was administered orally 60 minutes before the hot-plate test Morphine was used as a positive control and the mixed solvent (vehicle) alone not containing the test compound was used as a negative control.
Each mouse was placed on the hot plate and a stopwatch was immediately started for measurement. The latency time to the first pain response (paw lick or escape jump) was measured. The cut-off time was set to 30 seconds in order to avoid overdamage of the tissues, and the mouse was immediately removed from the hot-plate after measurement. All data are expressed as the mean±SEM. All statistical analyses were performed using Holm-Sidak's multiple comparisons test. The p-values less than 0.05 were judged as statistically significant in this experiment.

[3] = system: acute persistent pain (formalin-injected paw); assay: Formalin test (second phase); type: in vivo, Male CD1 (ICR) mice; conditions: oral pre-administration; 15 to 45 minutes after injection of 2.5% formalin; FIG. 2
Procedure: The compounds were examined in the second phase of the formalin test to determine an analgesic effect on acute persistent pain. In this model, the duration of responses induced by pain (behavior such as licking or biting of the formalin-injected paw) is used as an evaluation index (Dubuisson and Dennis (Pain, 4: p. 161-174 (1977)). Male CD1 (ICR) mice (Charles River Japan) aged 5 to 6 weeks (n=6 to 16, for each treatment) were used for the experiment. The responses induced by pain were measured by an automated behavioral analysis apparatus (MicroAct (Neuroscience, Inc.)) according to detection of changes in magnetic field. Before the day prior to evaluation of pain response, a small magnet for the detection of changes in magnetic field was implanted in the left hindlimb instep under isoflurane anesthesia. For oral administration, the test compound was suspended in a solution containing 0.45% methyl cellulose/4.5% Ceremophor/10% dimethyl sulfoxide to prepare a suspension having a dosing volume of 10 ml/kg and the suspension was administered orally. The mixed solvent as above (vehicle) alone not containing the test compound was used as a negative control. Gabapentin was intraperitoneally administered as a positive control. A 2.5% formalin solution was prepared by diluting Formaldehyde Solution (Wako Pure Chemical Industries) with physiological saline (Otsuka Pharmaceutical). At 40 minutes to an hour after administration of the test compound or the positive control, 10 μl of the 2.5% formalin solution was subcutaneously injected in the left hindlimb pad. The mouse was placed in an observation chamber immediately after administration for measurement. For evaluation of an analgesic effect in the second phase, the duration of behaviors such as licking or biting of the paw was measured by the automated behavioral analysis apparatus from 15 to 45 minutes after injection of the 2.5% formalin solution. All data are expressed as the mean±SEM. All statistical analyses were performed using the Holm-Sidak's multiple comparisons test. The p-values less than 0.05 were judged as statistically significant in this experiment.

[4] = 10 mg/kg oral, 30 min after administration
[5] = 10 mg/kg oral, 90 min after administration
[6] = 10 mg/kg oral, 180 min after administration
[7] = 10 mg/kg oral, Pre (before administration), 14 days after surgery
[8] = 50 mg/kg oral, 30 min after administration
[9] = 50 mg/kg oral, 90 min after administration
[10] = 50 mg/kg oral, 180 min after administration
[11] = 50 mg/kg oral, Pre (before administration), 14 days after surgery

NS(=O)(=O)NC1c2c(Cl)cc(F)cc2CC1(F)F (single isomer, unassigned; (-)) [Compound 2, (−)-N-(7-chloro-2,2,5-trifluoro-2,3-dihydro-1H-inden-1-yl)sulfamide]
50% Response threshold [1, 4]: 3.2 ± 0.4 g | 50% Response threshold [1, 5]: 4.1 ± 0.5 g | 50% Response threshold [1, 6]: 3.1 ± 0.2 g | 50% Response threshold [1, 7]: 2.4 ± 0.2 g | analgesic effect on tactile allodynia in CCI model ([1]; 50 mg/kg oral): statistically significant analgesic effect | 50% Response threshold [1, 8]: 4.2 ± 0.6 g | 50% Response threshold [1, 9]: 7.6 ± 1.1 g | 50% Response threshold [1, 10]: 4.0 ± 0.5 g | 50% Response threshold [1, 11]: 2.3 ± 0.2 g | response threshold against mechanical stimulation [1]: increased in an approximately dose dependent manner | latency time to the first pain response [2]: significantly increased | duration of the pain response [3]: statistically significantly shortened

NS(=O)(=O)N[C@H]1c2c(F)cc(F)cc2CC1(F)F [Compound 1, N-[(1S)-2,2,5,7-tetrafluoro-2,3-dihydro-1H-inden-1-yl]sulfamide]
50% Response threshold [1, 4]: 3.2 ± 0.3 g | 50% Response threshold [1, 5]: 4.4 ± 0.5 g | 50% Response threshold [1, 6]: 3.1 ± 0.3 g | 50% Response threshold [1, 7]: 2.4 ± 0.2 g | analgesic effect on tactile allodynia in CCI model ([1]; 50 mg/kg oral): statistically significant analgesic effect | 50% Response threshold [1, 8]: 6.0 ± 0.7 g | 50% Response threshold [1, 9]: 11.4 ± 1.4 g | 50% Response threshold [1, 10]: 5.3 ± 0.6 g | 50% Response threshold [1, 11]: 2.3 ± 0.2 g | response threshold against mechanical stimulation [1]: increased in an approximately dose dependent manner | latency time to the first pain response [2]: significantly increased | duration of the pain response [3]: statistically significantly shortened

Cc1cccc2c1[C@H](NS(N)(=O)=O)C(F)(F)C2 [Compound 3, N-[(1S)-2,2-difluoro-7-methyl-2,3-dihydro-1H-inden-1-yl]sulfamide]
50% Response threshold [1, 4]: 2.6 ± 0.4 g | 50% Response threshold [1, 5]: 3.5 ± 0.7 g | 50% Response threshold [1, 6]: 3.9 ± 0.4 g | 50% Response threshold [1, 7]: 2.4 ± 0.2 g | 50% Response threshold [1, 8]: 3.1 ± 0.4 g | 50% Response threshold [1, 9]: 3.2 ± 0.5 g | 50% Response threshold [1, 10]: 4.0 ± 0.4 g | 50% Response threshold [1, 11]: 2.4 ± 0.2 g | latency time to the first pain response [2]: significantly increased | duration of the pain response [3]: statistically significantly shortened

Cc1cc(F)cc2c1[C@H](NS(N)(=O)=O)C(F)(F)C2 [Compound 4, N-[(1S)-2,2,5-Trifluoro-7-methyl-2,3-dihydro-1H-inden-1-yl]sulfamide]
50% Response threshold [1, 4]: 3.6 ± 0.4 g | 50% Response threshold [1, 5]: 5.2 ± 1.5 g | 50% Response threshold [1, 6]: 5.2 ± 1.0 g | 50% Response threshold [1, 7]: 2.4 ± 0.2 g | 50% Response threshold [1, 8]: 4.3 ± 0.9 g | 50% Response threshold [1, 9]: 6.9 ± 1.5 g | 50% Response threshold [1, 10]: 5.6 ± 1.6 g | 50% Response threshold [1, 11]: 2.4 ± 0.2 g | latency time to the first pain response [2]: significantly increased | duration of the pain response [3]: statistically significantly shortened

NS(=O)(=O)NCc1csc2ccccc12 [compound 1, N-(benzo[b]thiophen-3-ylmethyl)sulfamide, reference compound]
50% Response threshold [1, 4]: 2.7 ± 0.4 g | 50% Response threshold [1, 5]: 3.4 ± 0.2 g | 50% Response threshold [1, 6]: 3.4 ± 0.3 g | 50% Response threshold [1, 7]: 2.5 ± 0.2 g | 50% Response threshold [1, 8]: 3.5 ± 0.3 g | 50% Response threshold [1, 9]: 3.9 ± 0.3 g | 50% Response threshold [1, 10]: 2.8 ± 0.2 g | 50% Response threshold [1, 11]: 2.5 ± 0.2 g

NS(=O)(=O)NC[C@H]1COc2cc(Cl)ccc2O1 [compound 2, (2S)-(−)-N-(6-chloro-2,3-dihydro-benzo[1,4]dioxin-2-ylmethyl)-sulfamide, reference compound]
50% Response threshold [1, 4]: 2.9 ± 0.4 g | 50% Response threshold [1, 5]: 3.2 ± 0.4 g | 50% Response threshold [1, 6]: 3.0 ± 0.2 g | 50% Response threshold [1, 7]: 2.6 ± 0.2 g | 50% Response threshold [1, 8]: 3.5 ± 0.3 g | 50% Response threshold [1, 9]: 4.5 ± 0.4 g | 50% Response threshold [1, 10]: 3.6 ± 0.6 g | 50% Response threshold [1, 11]: 2.6 ± 0.2 g
